Assays:
[1] = system: Mycobacterium tuberculosis (M. tuberculosis Kurono); test: Antibacterial test (agar dilution method), M. tuberculosis Kurono; assay type: cell-based; settings: 7H11 agar medium, about 10^6 CFU/mL, 37° C. for 14 days; for MIC: Mycobacterium tuberculosis, 336 h, read-out: Minimum inhibitory concentration (MIC) kurono
[2] = system: Mycobacterium tuberculosis (M. tuberculosis H37Rv); test: Antibacterial test (agar plate dilution method), M. tuberculosis H37Rv; assay type: cell-based; settings: 336 h, 7H11 agar medium, about 10^6 CFU/mL, 37° C. for 14 days, read-out: minimum inhibitory concentration against M. tuberculosis H37Rv

| SMILES | MIC [1] | melting point | MIC [2] | Minimum inhibitory concentration (MIC) kurono [1] |
| --- | --- | --- | --- | --- |
| O=C1CCc2c(OCC3(O)CCN(c4ccc(Cl)cc4F)CC3)ccc(F)c2N1 [Example 52, 5-{[1-(4-Chloro-2-fluorophenyl)-4-hydroxypiperidin-4-yl]methoxy}-8-fluoro-3,4-dihydroquinolin-2(1H)-one] | < 0.39 µg/mL | 190.6 to 190.7 °C |  |  |
| CCOc1ccc(N2CCC(O)(COc3ccc(F)c4c3CCC(=O)N4)CC2)c(F)c1 [Example 85, 5-{[1-(4-Ethoxy-2-fluorophenyl)-4-hydroxypiperidin-4-yl]methoxy}-8-fluoro-3,4-dihydroquinolin-2(1H)-one] | < 0.39 µg/mL | 196 to 196.1 °C |  |  |
| O=C1CCc2c(OCC3(O)CCN(c4c(F)cc(Cl)cc4F)CC3)ccc(Cl)c2N1 [Example 102, 8-Chloro-5-{[1-(4-chloro-2,6-difluorophenyl)-4-hydroxypiperidin-4-yl]methoxy}-3,4-dihydroquinolin-2(1H)-one] | < 0.39 µg/mL | 181 to 181.2 °C |  |  |
| O=c1ccc2c(OCC3(O)CCN(c4ccc(Cl)cc4F)CC3)cccc2[nH]1 [Example 138, 5-{[1-(4-Chloro-2-fluorophenyl)-4-hydroxypiperidin-4-yl]methoxy}quinolin-2(1H)-one] | < 0.39 µg/mL | 275.7 to 277 °C |  |  |
| O=C1CCc2c(OCC3(O)CCN(c4ncc(Cl)cc4Cl)CC3)ccc(Cl)c2N1 [Example 139, 8-Chloro-5-{[1-(3,5-dichloropyridin-2-yl)-4-hydroxypiperidin-4-yl]methoxy}-3,4-dihydroquinolin-2(1H)-one] | < 0.39 µg/mL | 218 °C |  |  |
| O=C1CCc2c(OCC3(O)CCN(c4ccc(OCc5ccc(OC(F)(F)F)cc5)cc4F)CC3)ccc(F)c2N1 [Example 152, 8-Fluoro-5-{[1-(2-fluoro-4-{[4-(trifluoromethoxy)benzyl]oxy}phenyl)-4-hydroxypiperidin-4-yl]methoxy}-3,4-dihydroquinolin-2(1H)-one] | < 0.39 µg/mL | 199.9 to 200.5 °C |  |  |
| COCCOc1cc(N2CCC(O)(COc3ccc(Cl)c4c3CCC(=O)N4)CC2)c(F)cc1Cl [Example 175, 8-Chloro-5-({1-[4-chloro-2-fluoro-5-(2-methoxyethoxy)phenyl]-4-hydroxypiperidin-4-yl}methoxy)-3,4-dihydroquinolin-2(1H)-one] | < 0.39 µg/mL | 143.5 to 145.1 °C |  |  |
| O=C1CCc2c(OC[C@@]3(O)CCN(c4ncc(Cl)cc4Cl)C[C@@H]3O)ccc(F)c2N1 [Example 252, 5-{[(3S,4S)-1-(3,5-Dichloropyridin-2-yl)-3,4-dihydroxypiperidin-4-yl]methoxy}-8-fluoro-3,4-dihydroquinolin-2(1H)-one] | < 0.39 µg/mL |  |  |  |
| O=C1CCc2c(OC[C@]3(O)CCN(c4ccc(Cl)cc4F)C[C@H]3O)ccc(F)c2N1 [Example 259, 5-{[(3R,4R)-1-(4-Chloro-2-fluorophenyl)-3,4-dihydroxypiperidin-4-yl]methoxy}-8-fluoro-3,4-dihydroquinolin-2(1H)-one] | < 0.39 µg/mL |  | < 0.39 µg/mL |  |
| O=C1CCc2c(OC[C@]3(O)CCN(c4c(F)cc(Cl)cc4F)C[C@H]3O)ccc(F)c2N1 [Example 260, 5-{[(3R,4R)-1-(4-Chloro-2,6-difluorophenyl)-3,4-dihydroxypiperidin-4-yl]methoxy}-8-fluoro-3,4-dihydroquinolin-2(1H)-one] | < 0.39 µg/mL |  |  |  |
| O=C1CCc2c(OC[C@@]3(O)CCN(c4ccc(Cl)cc4F)C[C@@H]3O)ccc(F)c2N1 [Example 265, 5-{[(3S,4S)-1-(4-Chloro-2-fluorophenyl)-3,4-dihydroxypiperidin-4-yl]methoxy}-8-fluoro-3,4-dihydroquinolin-2(1H)-one] | < 0.39 µg/mL |  |  |  |
| O=C1CCc2c(OC[C@]3(O)CCN(c4nc5ccc(Cl)cc5cc4Br)C[C@H]3O)ccc(F)c2N1 [Example 288, 5-{[(3R,4R)-1-(3-Bromo-6-chloroquinolin-2-yl)-3,4-dihydroxypiperidin-4-yl]methoxy}-8-fluoro-3,4-dihydroquinolin-2(1H)-one] | < 0.39 µg/mL |  |  |  |
| O=C1CCc2c(cccc2OC[C@]2(O)CCN(c3ccc(Br)cc3F)C[C@H]2O)N1 [Example 347, 5-{[(3R,4R)-1-(4-Bromo-2-fluorophenyl)-3,4-dihydroxypiperidin-4-yl]methoxy}-3,4-dihydroquinolin-2(1H)-one] | < 0.39 µg/mL | 226 to 227 °C |  |  |
| O=C1CCc2c(OC[C@]3(O)CCN(c4c(F)cc(Cl)cc4F)C[C@@H]3O)ccc(F)c2N1 [Example 361, 5-{[(3S,4R)-1-(4-Chloro-2,6-difluorophenyl)-3,4-dihydroxypiperidin-4-yl]methoxy}-8-fluoro-3,4-dihydroquinolin-2(1H)-one] | < 0.39 µg/mL |  |  |  |
| O=C1CCc2c(OC[C@@]3(O)CCN(c4ccc(Br)cc4F)C[C@H]3O)ccc(Cl)c2N1 [Example 364, 5-{[(3R,4S)-1-(4-Bromo-2-fluorophenyl)-3,4-dihydroxypiperidin-4-yl]methoxy}-8-chloro-3,4-dihydroquinolin-2(1H)-one] | < 0.39 µg/mL | 185.8 to 186 °C |  |  |
| O=C1CCc2c(NCC3(O)CCN(c4ncc(Cl)cc4Cl)CC3)ccc(F)c2N1 [Example 372, 5-({[1-(3,5-Dichloropyridin-2-yl)-4-hydroxypiperidin-4-yl]methyl}amino)-8-fluoro-3,4-dihydroquinolin-2(1H)-one] | < 0.39 µg/mL |  |  |  |
| O=C1CCc2c(OCC3CCN(c4ncc(Cl)cc4Cl)CC3)ccc(F)c2N1 [Example 399, 5-{[1-(3,5-Dichloropyridin-2-yl)piperidin-4-yl]methoxy}-8-fluoro-3,4-dihydroquinolin-2(1H)-one] | < 0.39 µg/mL | 194 to 195 °C |  |  |
| O=C1CCc2c(OCC3(F)CCN(c4ncc(Cl)cc4Cl)CC3)ccc(F)c2N1 [Example 404, 5-{[1-(3,5-Dichloropyridin-2-yl)-4-fluoropiperidin-4-yl]methoxy}-8-fluoro-3,4-dihydroquinolin-2(1H)-one] | < 0.39 µg/mL |  |  |  |
| O=C1CCc2c(OC[C@@]3(O)CCN(c4c(F)cc(Cl)cc4F)C[C@H]3F)ccc(F)c2N1 [Example 446, 5-{[(3R,4S)-1-(4-Chloro-2,6-difluorophenyl)-3-fluoro-4-hydroxypiperidin-4-yl]methoxy}-8-fluoro-3,4-dihydroquinolin-2(1H)-one] | < 0.39 µg/mL | 224 to 225 °C |  |  |
| O=C1CCc2c(OC[C@]3(O)CCN(c4c(F)cc(Cl)cc4F)C[C@@H]3F)ccc(F)c2N1 [Example 447, 5-{[(3S,4R)-1-(4-Chloro-2,6-difluorophenyl)-3-fluoro-4-hydroxypiperidin-4-yl]methoxy}-8-fluoro-3,4-dihydroquinolin-2(1H)-one] | < 0.39 µg/mL | 224 to 225 °C |  |  |
| O=C1CCc2c(OC[C@]3(O)CCN(c4c(F)cc(Cl)cc4F)C[C@H]3F)ccc(F)c2N1 [Example 448, 5-{[(3R,4R)-1-(4-Chloro-2,6-difluorophenyl)-3-fluoro-4-hydroxypiperidin-4-yl]methoxy}-8-fluoro-3,4-dihydroquinolin-2(1H)-one] | < 0.39 µg/mL | 207 to 209 °C |  |  |
| O=C1CCc2c(OC[C@@]3(O)CCN(c4c(F)cc(Cl)cc4F)C[C@@H]3F)ccc(F)c2N1 [Example 449, 5-{[(3S,4S)-1-(4-Chloro-2,6-difluorophenyl)-3-fluoro-4-hydroxypiperidin-4-yl]methoxy}-8-fluoro-3,4-dihydroquinolin-2(1H)-one] | < 0.39 µg/mL | 209 to 210 °C |  |  |
| CCOC(=O)O[C@@H]1CN(c2c(F)cc(Cl)cc2F)CC[C@@]1(O)COc1ccc(F)c2c1CCC(=O)N2 [Example 450, (3R,4R)-1-(4-chloro-2,6-difluorophenyl)-4-{[(8-fluoro-2-oxo-1,2,3,4-tetrahydroquinolin-5-yl)oxy]methyl}-4-hydroxypiperidin-3-yl ethyl carbonate] | < 0.39 µg/mL |  |  |  |
| CC(=O)O[C@@H]1CN(c2ccc(Cl)cc2F)CC[C@@]1(O)COc1ccc(F)c2c1CCC(=O)N2 [Example 454, (3R,4R)-1-(4-Chloro-2-fluorophenyl)-4-{[(8-fluoro-2-oxo-1,2,3,4-tetrahydroquinolin-5-yl)oxy]methyl}-4-hydroxypiperidin-3-yl acetate] | < 0.39 µg/mL |  |  |  |
| O=C1CCc2c(SCC3(O)CCN(c4ccc(Cl)cc4F)CC3)ccc(F)c2N1 [Example 460, 5-({[1-(4-Chloro-2-fluorophenyl)-4-hydroxypiperidin-4-yl]methyl}sulfanyl)-8-fluoro-3,4-dihydroquinolin-2(1H)-one] | < 0.39 µg/mL | 171 to 172 °C |  |  |
| O=C1CCc2c(CCC3(O)CCN(c4c(F)cc(Cl)cc4F)CC3)ccc(F)c2N1 [Example 463, 5-{2-[1-(4-Chloro-2,6-difluorophenyl)-4-hydroxypiperidin-4-yl]ethyl}-8-fluoro-3,4-dihydroquinolin-2(1H)-one] | < 0.39 µg/mL |  |  |  |
| O=C1CCc2c(OCC3(O)CCC(O)(c4ccc(Cl)cc4F)CC3)ccc(F)c2N1 (stereo not drawn) [Example 465, 5-{[trans-4-(4-Chloro-2-fluorophenyl)-1,4-dihydroxycyclohexyl]methoxy}-8-fluoro-3,4-dihydroquinolin-2(1H)-one] |  |  |  | <0.39 µg/mL |
| O=C1CCc2c(OCC3(O)CCC(c4ccc(Cl)cc4F)CC3)ccc(F)c2N1 (stereo not drawn) [Example 469, 5-{[cis-4-(4-Chloro-2-fluorophenyl)-1-hydroxycyclohexyl]methoxy}-8-fluoro-3,4-dihydroquinolin-2(1H)-one] |  |  |  | <0.39 µg/mL |
| N#CC1(c2ccc(Cl)cc2F)CCC(O)(COc2ccc(F)c3c2CCC(=O)N3)CC1 (stereo not drawn) [Example 476, trans-1-(4-Chloro-2-fluorophenyl)-4-{[(8-fluoro-2-oxo-1,2,3,4-tetrahydroquinolin-5-yl)oxy]methyl}-4-hydroxycyclohexanecarbonitrile] |  |  |  | <0.39 µg/mL |
| COC1(c2ccc(Cl)cc2F)CCC(O)(COc2ccc(F)c3c2CCC(=O)N3)CC1 (stereo not drawn) [Example 477, 5-{[trans-4-(4-Chloro-2-fluorophenyl)-1-hydroxy-4-methoxycyclohexyl]methoxy}-8-fluoro-3,4-dihydroquinolin-2(1H)-one] |  |  |  | <0.39 µg/mL |

Source: US10464926B2, “Heterobicyclic compounds and their use for the treatment of tuberculosis” (OTSUKA PHARMACEUTICAL CO., LTD., priority 2014, dated 2019)
